Laboratory results from patent publication US8697724B2, “Crystalline oxalate salts of a diamide compound” (Theravance, Inc., priority 2010, dated 2014).
Structures can show the parent of a compound that is named as a salt.

Key:
[1] = system: methacholine (MCh)-induced bronchoconstriction; test: Einthoven assay: bronchoprotection against methacholine-induced bronchoconstriction; assay type: in vivo, rat; details: male Sprague-Dawley rats, inhalation, 100 μg, at 24 h
Procedure: This assay measures the ability of a test compound to provide bronchoprotection against methacholine (MCh)-induced bronchoconstriction in a rat.
Male Sprague-Dawley rats (Harlan, Indianapolis, Ind.), weighing between 200 g and 350 g, were used for all studies.
Test compound or vehicle (sterile deionized water) were dosed by inhalation (IH) over a 10 min period in a pie shaped inhalation chamber (R+S Molds, San Carlos, Calif.) using 5 mL of dosing solution. Rats were exposed to an aerosol, which was generated from an LC Star Nebulizer Set Model 22F51 (PARI Respiratory Equipment, Inc. Midlothian, Va.) driven by Bioblend (5% CO2/95% atmospheric air) at a pressure of 22 psi. Rats were dosed with 100 μg of test compound unless otherwise indicated.
At predetermined time points, rats were anesthetized with an intraperitoneal (IP) injection of 120 mg/kg inactin (thiobutabarbital). A supplemental dose (40 mg/kg, IP) was administered if the animal responded to physical stimuli (e.g. toe pinch). The surgical site was shaved and a 1-2 cm midline incision of the ventral aspect of the neck was made. […]
Changes in VP were recorded using the Acknowledge Data Collection Software (Santa Barbara, Calif.). […] Changes in ventilation pressure (cm H2O) in treated animals are expressed as % inhibition of MCh response relative to control animals.

[2] = Differential scanning calorimetry (thermal stability); assay type: physicochemical; details: DSC traces, 10° C./min
Procedure: Differential scanning calorimetry (DSC) was performed using a TA Instruments Model Q-100 module with a Thermal Analyst controller. Data were collected and analyzed using TA Instruments Thermal Solutions software. A sample of about 2 mg was accurately weighed into an aluminum pan with lid. The sample was evaluated using a linear heating ramp of 10° C./min from ambient temperature to approximately 300° C. The DSC cell was purged with dry nitrogen during use. Representative DSC traces for Form 1 and Form 2 are shown in FIG. 2 and FIG. 5, respectively.

[3] = Dynamic moisture sorption (DMS) assessment; assay type: physicochemical
Procedure: A dynamic moisture sorption (DMS) assessment (also known as a moisture sorption-desorption profile) was performed for a sample of Form 2 using a VTI atmospheric microbalance, SGA-100 system (VTI Corp., Hialeah, Fla. 33016). A sample size of approximately 10 mg was used and the humidity was set at the ambient value at the start of the analysis. A typical DMS analysis consisted of three scans: ambient to 5% relative humidity (RH), 5% RH to 90% RH, 90% RH to 5% RH at a scan rate of 5% RH/step. The mass was measured every two minutes and the RH was changed to the next value (+/−5% RH) when the mass of the sample was stable to within 0.01% for 5 consecutive points.

[4] = reversible moisture sorption/desorption profile

CN(CCCCC(=O)Nc1ccc(CNC[C@H](O)c2ccc(O)c3[nH]c(=O)ccc23)cc1)C(=O)CCN1CCC(OC(=O)Nc2ccccc2-c2ccccc2)CC1 [Biphenyl-2-ylcarbamic Acid 1-(2-{[4-(4-{[(R)-2-hydroxy-2-(8-hydroxy-2-oxo-1,2-dihydroquinolin-5-yl)ethylamino]methyl}phenylcarbamoyl)-butyl]methylcarbamoyl}ethyl)piperidin-4-yl Ester Ditrifluoroacetic Acid Salt]
% inhibition of MCh response [1]: at least 40%

CN(CCCCC(=O)Nc1ccc(CNC[C@H](O)c2ccc(O)c3[nH]c(=O)ccc23)cc1)C(=O)CCN1CCC(OC(=O)Nc2ccccc2-c2ccccc2)CC1 [Form 1, Biphenyl-2-ylcarbamic Acid 1-(2-{[4-(4-{[(R)-2-Hydroxy-2-(8-hydroxy-2-oxo-1,2-dihydroquinolin-5-yl)ethylamino]methyl}-phenylcarbamoyl)butyl]methylcarbamoyl}ethyl)piperidin-4-yl Ester Oxalate Isopropanol Solvate Salt (Form 1)]
thermal stability [2]: excellent thermal stability

CN(CCCCC(=O)Nc1ccc(CNC[C@H](O)c2ccc(O)c3[nH]c(=O)ccc23)cc1)C(=O)CCN1CCC(OC(=O)Nc2ccccc2-c2ccccc2)CC1 [Form 2, Biphenyl-2-ylcarbamic Acid 1-(2-{[4-(4-{[(R)-2-Hydroxy-2-(8-hydroxy-2-oxo-1,2-dihydroquinolin-5-yl)ethylamino]methyl}-phenylcarbamoyl)butyl]methylcarbamoyl}ethyl)piperidin-4-yl Ester Oxalate Hydrate Salt (Form 2)]
change in physical form during moisture sorption and desorption (PXRD before and after DMS) ([3]; PXRD profiles before and after the DMS experiment): no change in physical form occurred
weight gain (moisture sorption) ([3]; humidity range of 5% RH to 90% RH): about 1.6 weight %
deliquescence [3, 4]: not deliquescent
hygroscopicity [3, 4]: acceptable hygroscopicity
